These results are taken from patent US20080051429A1, “USE OF 4-AMINO-PIPERIDINES FOR TREATING SLEEP DISORDERS” (priority 2006, published 2008).

The target of data set [1] is T1, D3 (Homo sapiens, UniProt P35462).
T1 construct: expressed in transfected cells; host or cells: NIH3T3
Put plainly: R-SAT broad profiling. It counts as cell-based. As to conditions: read-out: pEC50 or pIC50 (converted). The protocol: (§1) The functional receptor assay, Receptor Selection and Amplification Technology (R-SAT), was used (with minor modifications from that previously described U.S. Pat. No. 5,707,798) to screen compounds for efficacy at the 5-HT2A receptor. Briefly, NIH3T3 cells were grown in 96 well tissue culture plates to 70-80% confluence. Cells were transfected for 12-16 hours with plasmid DNAs using superfect (Qiagen Inc.) as per manufacture's protocols. R-SAT's were generally performed with 50 ng/well of receptor and 20 ng/well of Beta-galactosidase plasmid DNA. All receptor and G-protein constructs used were in the pSI mammalian expression vector (Promega Inc) as described in U.S. Pat. No. 5,707,798. The 5HT2A receptor gene was amplified by nested PCR from brain cDNA using the oligodeoxynucleotides based on the published sequence (see Saltzman et. al. Biochem. Biophys. Res. Comm. 181:1469-78 (1991)). Large-scale transfections, cells were transfected for 12-16 hours, then trypsinized and frozen in DMSO. Frozen cells were later thawed, plated at 10,000-40,000 cells per well of a 96 well plate that contained drug. With both methods, cells were then grown in a humidified atmosphere with 5% ambient CO2 for five days. Media was then removed from the plates and marker gene activity was measured by the addition of the beta-galactosidase substrate ONPG (in PBS with 5% NP-40). The resulting colorimetric reaction was measured in a spectrophotometric plate reader (Titertek Inc.)at […]. All data were analyzed using the computer program XLFit (IDBSm). Efficacy is the percent maximal repression compared to repression by a control compound (ritanserin in the case of 5HT2A). pIC50 is the negative of the log(IC50), where IC50 is the calculated concentration in Molar that produces 50% maximal repression.
(§2) The R-SAT assay (described above in example 289) was used to investigate the selectivity of 4-(4-Fluoro-benzyl)-3-(4-isobutoxy-benzyl)-8-methyl-1-oxa-3,8-diaza-spiro[4.5]decan-2-one.

The target of data set [2] is T2, m2 (Homo sapiens, UniProt P08172).
T2 construct: expressed in transfected cells; host or cells: NIH3T3
T2 sequence (P08172 1-466): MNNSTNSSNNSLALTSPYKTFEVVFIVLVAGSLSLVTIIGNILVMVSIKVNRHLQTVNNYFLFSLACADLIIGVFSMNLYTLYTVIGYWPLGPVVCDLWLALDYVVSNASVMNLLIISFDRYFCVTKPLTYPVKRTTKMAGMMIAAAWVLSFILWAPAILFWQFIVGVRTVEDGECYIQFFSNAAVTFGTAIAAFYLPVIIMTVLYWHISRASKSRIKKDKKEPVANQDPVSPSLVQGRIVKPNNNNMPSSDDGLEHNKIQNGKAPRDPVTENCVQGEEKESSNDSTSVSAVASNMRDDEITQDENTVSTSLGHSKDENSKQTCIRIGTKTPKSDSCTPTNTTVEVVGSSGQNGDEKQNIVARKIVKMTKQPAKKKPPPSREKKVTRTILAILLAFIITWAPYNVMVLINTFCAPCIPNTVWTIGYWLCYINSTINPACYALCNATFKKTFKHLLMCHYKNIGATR
The data set is described as follows: R-SAT broad profiling. It counts as cell-based. As to conditions: agonist; read-out: pEC50 or pIC50 (converted). As to the method: as §1, §2

The target in data set [3] is T3, m5 (Homo sapiens, UniProt P08912).
T3 construct: expressed in transfected cells; host or cells: NIH3T3
T3 sequence (P08912 1-532): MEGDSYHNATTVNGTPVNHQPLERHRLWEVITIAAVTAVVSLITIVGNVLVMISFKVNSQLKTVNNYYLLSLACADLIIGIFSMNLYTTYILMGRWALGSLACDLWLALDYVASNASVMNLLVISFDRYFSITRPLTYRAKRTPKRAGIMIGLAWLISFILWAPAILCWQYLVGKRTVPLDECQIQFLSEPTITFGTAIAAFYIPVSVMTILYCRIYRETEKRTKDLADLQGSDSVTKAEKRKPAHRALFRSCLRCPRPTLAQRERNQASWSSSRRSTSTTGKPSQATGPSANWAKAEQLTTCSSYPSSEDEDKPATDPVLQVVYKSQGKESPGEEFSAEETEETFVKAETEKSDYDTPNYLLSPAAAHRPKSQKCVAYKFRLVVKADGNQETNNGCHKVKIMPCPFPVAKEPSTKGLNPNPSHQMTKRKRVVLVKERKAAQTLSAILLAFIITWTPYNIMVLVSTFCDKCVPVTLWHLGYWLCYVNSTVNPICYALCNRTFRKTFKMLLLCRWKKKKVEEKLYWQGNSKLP
Put plainly: R-SAT broad profiling. Format: cell-based. The settings on record: agonist; read-out: pEC50 or pIC50 (converted). The protocol:
as §1, §2

The target in data set [4] is T4, alpha 2B (Homo sapiens, UniProt P18089).
T4 construct: expressed in transfected cells; host or cells: NIH3T3
T4 sequence (P18089 1-450): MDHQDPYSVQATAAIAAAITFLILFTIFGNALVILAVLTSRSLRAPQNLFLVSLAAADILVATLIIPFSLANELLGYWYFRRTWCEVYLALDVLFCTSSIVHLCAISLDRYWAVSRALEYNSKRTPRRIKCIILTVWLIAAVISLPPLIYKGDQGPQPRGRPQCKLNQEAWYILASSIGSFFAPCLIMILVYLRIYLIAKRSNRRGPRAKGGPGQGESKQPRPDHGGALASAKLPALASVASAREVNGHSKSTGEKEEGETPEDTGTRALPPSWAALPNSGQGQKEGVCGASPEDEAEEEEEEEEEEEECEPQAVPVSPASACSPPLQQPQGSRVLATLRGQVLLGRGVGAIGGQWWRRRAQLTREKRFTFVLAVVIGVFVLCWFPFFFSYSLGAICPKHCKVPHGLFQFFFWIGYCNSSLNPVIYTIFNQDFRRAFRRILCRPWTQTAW
The data set is described as follows: R-SAT broad profiling. As to conditions: read-out: pEC50 or pIC50 (converted). Format: cell-based. The protocol: as §1, §2

The test system of data set [5] is healthy volunteers. Put plainly: Continuous Performance Test (CPT). It counts as in vivo, human. As to the method: Performance Assessment: A Continuous Performance Test (CPT; Rosvold M E, Mirsky A F, Sarason I, Bransome E R Jr., Beck L H (1956) A continuous performance test for brain damage. J Consult Psychol 20:343-350, which is incorporated herein by reference in its entirety), was used to evaluate attention and vigilance. The test was administered both during the evening and the morning following the baseline PSG on Day 1 and the evaluation PSG on Day 13. Participants were rapidly presented a numerical train with a target number as point of reference. Participants pushed a button rapidly when the target number appeared in the number list. The procedure lasted three minutes. The number of targets detected and the number of false alarms were assessed.

Some results are limits rather than exact numbers.

T1 sequence (P35462 whole entry): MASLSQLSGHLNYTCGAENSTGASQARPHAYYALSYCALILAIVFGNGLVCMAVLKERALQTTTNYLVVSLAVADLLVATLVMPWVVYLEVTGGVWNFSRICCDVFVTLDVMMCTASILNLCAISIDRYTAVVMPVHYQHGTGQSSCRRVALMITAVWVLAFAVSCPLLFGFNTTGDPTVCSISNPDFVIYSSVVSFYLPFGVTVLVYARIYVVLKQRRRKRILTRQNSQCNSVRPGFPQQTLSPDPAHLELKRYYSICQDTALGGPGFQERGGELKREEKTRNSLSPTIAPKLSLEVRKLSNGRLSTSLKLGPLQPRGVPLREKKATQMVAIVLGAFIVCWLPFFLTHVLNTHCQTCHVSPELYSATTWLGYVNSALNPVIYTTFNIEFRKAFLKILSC

For the molecule `CC(C)COc1ccc(CN2C(=O)OC3(CCN(C)CC3)C2Cc2ccc(F)cc2)cc1.Cl` (racemic) [Example 69NLS75, 4-(4-Fluorobenzyl)-3-(4-isobutoxybenzyl)-8-methyl-1-oxa-3,8-diazaspiro[4.5]decan-2-one, hydrochloride], the EC50 in data set [1] (agonist), in data set [2], in data set [3] and in data set [4] (agonist) was greater than 3.16 µM throughout. Besides, the IC50 in data set [1] (antagonist) and in data set [4] (antagonist) was greater than 3.16 µM in each case.
In the case of `CC(C)COc1ccc(CNC(=O)N(Cc2ccc(F)cc2)C2CCN(C)CC2)cc1` [N-(1-methylpiperidin-4-yl)-N-(4-fluorophenylmethyl)-N′-(4-(2-methylpropyloxy)phenylmethyl)carbamide], in data set [5] (any dose, evening and morning (p>0.10)), the “CPT detected targets and false alarm change scores” value is on record as “absence of effect”. In data set [5] (in words), the daytime functioning result is listed as “did not impair”.
